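Step 1: Grow cells in 96-well plates. Step 2: Expose to compound for 48 hours at 5 concentrations. Step 3: Interpolate endpoints linearly; if unreached, use highest concentration. Abbreviation: GI50, concentration required for 50% inhibition of growth.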 The source made the active and inactive calls. No stated cut-off is given here; in the data, active = GI50 up to about 1.1 µM and inactive = higher.
Key:
Assay in all cases: NCI-60 cell line screen, 48 h
786-0 = tested on: 786-0
HCT-116 = tested on: HCT-116
Malme-3M = tested on: Malme-3M
RPMI-8226 = tested on: RPMI-8226
CCRF-CEM = tested on: CCRF-CEM
K562 = tested on: K562
A549 = tested on: A549
OVCAR-4 = tested on: OVCAR-4
NCI-H23 = tested on: NCI-H23
SK-MEL-5 = tested on: SK-MEL-5
ACHN = tested on: ACHN
SF-268 = tested on: SF-268
RXF 393 = tested on: RXF 393
SN12C = tested on: SN12C
CAKI-1 = tested on: CAKI-1
SF-539 = tested on: SF-539
SNB-75 = tested on: SNB-75
TK-10 = tested on: TK-10
SNB-78 = tested on: SNB-78
UO-31 = tested on: UO-31
SK-MEL-28 = tested on: SK-MEL-28
UACC-257 = tested on: UACC-257
LOX IMVI = tested on: LOX IMVI
SK-MEL-2 = tested on: SK-MEL-2
DMS-114 = tested on: DMS-114
M14 = tested on: M14
NCI-H226 = tested on: NCI-H226
EKVX = tested on: EKVX
HT-29 = tested on: HT-29
DMS-273 = tested on: DMS-273
HOP-92 = tested on: HOP-92
HL-60 = tested on: HL-60
HCC 2998 = tested on: HCC 2998
HOP-62 = tested on: HOP-62
KM12 = tested on: KM12
SF-295 = tested on: SF-295
NCI-H522 = tested on: NCI-H522
M19-MEL = tested on: M19-MEL
A498 = tested on: A498
COLO 205 = tested on: COLO 205
KM-20L2 = tested on: KM-20L2
DLD-1 = tested on: DLD-1
NCI-H460 = tested on: NCI-H460
SK-OV-3 = tested on: SK-OV-3
SW-620 = tested on: SW-620
HOP-18 = tested on: HOP-18
OVCAR-8 = tested on: OVCAR-8
OVCAR-5 = tested on: OVCAR-5
UACC-62 = tested on: UACC-62
OVCAR-3 = tested on: OVCAR-3
IGROV-1 = tested on: IGROV-1
U-251 = tested on: U-251
SNB-19 = tested on: SNB-19
HCT-15 = tested on: HCT-15
MOLT-4 = tested on: MOLT-4
LXFL 529 = tested on: LXFL 529

N#Cc1nc(C2OC(COC(=O)c3ccccc3)C(OC(=O)c3ccccc3)C2OC(=O)c2ccccc2)oc1N (stereo not drawn)
GI50 (786-0): 27 µM (inactive) | GI50 (HCT-116): 16.5 µM (inactive) | GI50 (Malme-3M): 84.3 µM (inactive) | GI50 (RPMI-8226): 2.1 µM (inactive) | GI50 (CCRF-CEM): 3.18 µM (inactive) | GI50 (K562): 6.12 µM (inactive) | GI50 (A549): 26.4 µM (inactive) | GI50 (OVCAR-4): 10.8 µM (inactive) | GI50 (NCI-H23): 19.1 µM (inactive) | GI50 (SK-MEL-5): 14.5 µM (inactive) | GI50 (ACHN): 33.7 µM (inactive) | GI50 (SF-268): 15 µM (inactive) | GI50 (RXF 393): 14.7 µM (inactive) | GI50 (SN12C): 48.2 µM (inactive) | GI50 (CAKI-1): 26.5 µM (inactive) | GI50 (SF-539): 58.6 µM (inactive) | GI50 (SNB-75): 11.3 µM (inactive) | GI50 (TK-10): 63.5 µM (inactive) | GI50 (SNB-78): 22 µM (inactive) | GI50 (UO-31): 12 µM (inactive) | GI50 (SK-MEL-28): 31 µM (inactive) | GI50 (UACC-257): 20.7 µM (inactive) | GI50 (LOX IMVI): 67.1 µM (inactive) | GI50 (SK-MEL-2): 27.3 µM (inactive) | GI50 (DMS-114): 28.9 µM (inactive) | GI50 (M14): 89.7 µM (inactive) | GI50 (NCI-H226): 14.2 µM (inactive) | GI50 (EKVX): 39.5 µM (inactive) | GI50 (HT-29): 9.16 µM (inactive) | GI50 (DMS-273): 26.4 µM (inactive) | GI50 (HOP-92): 96.4 µM (inactive) | GI50 (HL-60): 7.03 µM (inactive) | GI50 (HCC 2998): 35.6 µM (inactive) | GI50 (HOP-62): > 100 µM (inactive) | GI50 (KM12): 18.3 µM (inactive) | GI50 (SF-295): 39.2 µM (inactive) | GI50 (NCI-H522): 5.33 µM (inactive) | GI50 (M19-MEL): 36.7 µM (inactive) | GI50 (A498): > 100 µM (inactive) | GI50 (COLO 205): 61.4 µM (inactive) | GI50 (KM-20L2): 39 µM (inactive) | GI50 (DLD-1): 37.2 µM (inactive) | GI50 (NCI-H460): 76.4 µM (inactive) | GI50 (SK-OV-3): > 100 µM (inactive) | GI50 (SW-620): 12.1 µM (inactive) | GI50 (HOP-18): 10.7 µM (inactive) | GI50 (OVCAR-8): 46.1 µM (inactive) | GI50 (OVCAR-5): 87.7 µM (inactive) | GI50 (UACC-62): 38.7 µM (inactive) | GI50 (OVCAR-3): 34.1 µM (inactive) | GI50 (IGROV-1): > 100 µM (inactive) | GI50 (U-251): 32.5 µM (inactive) | GI50 (SNB-19): > 100 µM (inactive) | GI50 (HCT-15): 16.7 µM | GI50 (MOLT-4): 5.6 µM (inactive)

Cc1cccc(C(C)(C)C)c1NC(=O)CCc1n[nH]c(=S)o1
GI50 (786-0): > 100 µM (inactive) | GI50 (HCT-116): 17.6 µM (inactive) | GI50 (Malme-3M): > 100 µM (inactive) | GI50 (RPMI-8226): 22.8 µM (inactive) | GI50 (CCRF-CEM): > 100 µM (inactive) | GI50 (K562): 43.2 µM (inactive) | GI50 (A549): > 100 µM (inactive) | GI50 (OVCAR-4): > 100 µM (inactive) | GI50 (LXFL 529): > 100 µM (inactive) | GI50 (NCI-H23): > 100 µM (inactive) | GI50 (SK-MEL-5): > 100 µM (inactive) | GI50 (ACHN): > 100 µM (inactive) | GI50 (SF-268): > 100 µM (inactive) | GI50 (SN12C): > 100 µM (inactive) | GI50 (CAKI-1): > 100 µM (inactive) | GI50 (SF-539): > 100 µM (inactive) | GI50 (SNB-75): > 100 µM (inactive) | GI50 (TK-10): > 100 µM (inactive) | GI50 (SNB-78): > 100 µM (inactive) | GI50 (UO-31): > 100 µM (inactive) | GI50 (SK-MEL-28): > 100 µM (inactive) | GI50 (UACC-257): > 100 µM (inactive) | GI50 (DMS-114): 43.3 µM (inactive) | GI50 (M14): > 100 µM (inactive) | GI50 (NCI-H226): 0.3 µM (active) | GI50 (EKVX): > 100 µM (inactive) | GI50 (HT-29): > 100 µM (inactive) | GI50 (DMS-273): 40.9 µM (inactive) | GI50 (HOP-92): > 100 µM (inactive) | GI50 (HL-60): > 100 µM (inactive) | GI50 (HCC 2998): > 100 µM (inactive) | GI50 (HOP-62): > 100 µM (inactive) | GI50 (KM12): > 100 µM (inactive) | GI50 (SF-295): > 100 µM (inactive) | GI50 (NCI-H522): > 100 µM (inactive) | GI50 (M19-MEL): > 100 µM (inactive) | GI50 (A498): > 100 µM (inactive) | GI50 (COLO 205): 16.6 µM (inactive) | GI50 (KM-20L2): > 100 µM (inactive) | GI50 (DLD-1): 98.4 µM (inactive) | GI50 (NCI-H460): > 100 µM (inactive) | GI50 (SK-OV-3): > 100 µM (inactive) | GI50 (SW-620): 15.9 µM (inactive) | GI50 (HOP-18): > 100 µM (inactive) | GI50 (OVCAR-8): > 100 µM (inactive) | GI50 (OVCAR-5): > 100 µM (inactive) | GI50 (UACC-62): > 100 µM (inactive) | GI50 (OVCAR-3): > 100 µM (inactive) | GI50 (IGROV-1): > 100 µM (inactive) | GI50 (U-251): > 100 µM (inactive) | GI50 (SNB-19): > 100 µM (inactive) | GI50 (HCT-15): 21.7 µM | GI50 (MOLT-4): > 100 µM (inactive)

NC(CCCCNCc1ccccc1O)C(=O)O (stereo not drawn)
GI50 (786-0): > 100 µM (inactive) | GI50 (HCT-116): > 100 µM (inactive) | GI50 (Malme-3M): > 100 µM (inactive) | GI50 (RPMI-8226): > 100 µM (inactive) | GI50 (CCRF-CEM): > 100 µM (inactive) | GI50 (K562): > 100 µM (inactive) | GI50 (A549): > 100 µM (inactive) | GI50 (OVCAR-4): > 100 µM (inactive) | GI50 (LXFL 529): > 100 µM (inactive) | GI50 (NCI-H23): > 100 µM (inactive) | GI50 (SK-MEL-5): > 100 µM (inactive) | GI50 (ACHN): > 100 µM (inactive) | GI50 (SF-268): > 100 µM (inactive) | GI50 (SN12C): > 100 µM (inactive) | GI50 (CAKI-1): > 100 µM (inactive) | GI50 (SF-539): > 100 µM (inactive) | GI50 (SNB-75): 93.5 µM (inactive) | GI50 (TK-10): > 100 µM (inactive) | GI50 (SNB-78): > 100 µM (inactive) | GI50 (UO-31): > 100 µM (inactive) | GI50 (SK-MEL-28): > 100 µM (inactive) | GI50 (UACC-257): > 100 µM (inactive) | GI50 (LOX IMVI): > 100 µM (inactive) | GI50 (SK-MEL-2): > 100 µM (inactive) | GI50 (DMS-114): > 100 µM (inactive) | GI50 (M14): > 100 µM (inactive) | GI50 (NCI-H226): > 100 µM (inactive) | GI50 (EKVX): > 100 µM (inactive) | GI50 (HT-29): > 100 µM (inactive) | GI50 (DMS-273): > 100 µM (inactive) | GI50 (HOP-92): > 100 µM (inactive) | GI50 (HL-60): > 100 µM (inactive) | GI50 (HCC 2998): > 100 µM (inactive) | GI50 (HOP-62): > 100 µM (inactive) | GI50 (KM12): > 100 µM (inactive) | GI50 (SF-295): > 100 µM (inactive) | GI50 (NCI-H522): > 100 µM (inactive) | GI50 (M19-MEL): > 100 µM (inactive) | GI50 (A498): > 100 µM (inactive) | GI50 (COLO 205): > 100 µM (inactive) | GI50 (KM-20L2): > 100 µM (inactive) | GI50 (DLD-1): > 100 µM (inactive) | GI50 (NCI-H460): > 100 µM (inactive) | GI50 (SK-OV-3): > 100 µM (inactive) | GI50 (SW-620): > 100 µM (inactive) | GI50 (HOP-18): > 100 µM (inactive) | GI50 (OVCAR-8): > 100 µM (inactive) | GI50 (OVCAR-5): > 100 µM (inactive) | GI50 (UACC-62): > 100 µM (inactive) | GI50 (OVCAR-3): > 100 µM (inactive) | GI50 (IGROV-1): > 100 µM (inactive) | GI50 (U-251): > 100 µM (inactive) | GI50 (SNB-19): > 100 µM (inactive) | GI50 (HCT-15): > 100 µM | GI50 (MOLT-4): > 100 µM (inactive)
